Values of other authors as cited in patent publication US20100069389A1, “NOVEL FORMS OF REBOXETINE” (Bionevia Pharmaceuticals, Inc., priority 2008, published 2010).

Settings: humans; Denolle et al., Clin Pharmacol Ther. 1999

## CCOc1ccccc1OC(c1ccccc1)C1CNCCO1 (racemic) [Racemic reboxetine, (2RS)-2-[(RS)-(2-ethoxyphenoxy)-phenylmethyl]morpholine]
  Blood pressure and heart rate increases compared with (R,R)-reboxetine: greater blood pressure increases and heart rate increases in humans than does administration of (R,R)-reboxetine
